Assay results as given in ChEMBL document CHEMBL1201862, “PubChem BioAssay data set” (2004).
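Grown in 96-well plates, cells were treated for 48 hours with each compound at five concentrations. Insufficient inhibition: endpoint recorded as highest concentration tested. GI50 = concentration required for 50% inhibition of growth.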 Active and inactive are the calls of the source. No stated cut-off is given here; in the data, active = GI50 up to about 1.1 µM and inactive = higher.

Legend:
Assay in all cases: NCI tumour cell line growth inhibition, 48 h
786-0 = tested on: 786-0
A549 = tested on: A549
ACHN = tested on: ACHN
BT-549 = tested on: BT-549
CAKI-1 = tested on: CAKI-1
CCRF-CEM = tested on: CCRF-CEM
COLO 205 = tested on: COLO 205
DU-145 = tested on: DU-145
EKVX = tested on: EKVX
HCC 2998 = tested on: HCC 2998
HCT-116 = tested on: HCT-116
HCT-15 = tested on: HCT-15
HL-60 = tested on: HL-60
HOP-62 = tested on: HOP-62
HT-29 = tested on: HT-29
Hs-578T = tested on: Hs-578T
IGROV-1 = tested on: IGROV-1
K562 = tested on: K562
KM12 = tested on: KM12
LOX IMVI = tested on: LOX IMVI
M14 = tested on: M14
MCF7 = tested on: MCF7
MDA-MB-231 = tested on: MDA-MB-231
MDA-N = tested on: MDA-N
MOLT-4 = tested on: MOLT-4
Malme-3M = tested on: Malme-3M
NCI-H226 = tested on: NCI-H226
NCI-H23 = tested on: NCI-H23
NCI-H460 = tested on: NCI-H460
NCI-H522 = tested on: NCI-H522
NCI/ADR-RES = tested on: NCI/ADR-RES
OVCAR-4 = tested on: OVCAR-4
OVCAR-5 = tested on: OVCAR-5
OVCAR-8 = tested on: OVCAR-8
PC-3 = tested on: PC-3
RPMI-8226 = tested on: RPMI-8226
RXF 393 = tested on: RXF 393
SF-268 = tested on: SF-268
SF-295 = tested on: SF-295
SF-539 = tested on: SF-539
SK-MEL-28 = tested on: SK-MEL-28
SK-MEL-2 = tested on: SK-MEL-2
SK-MEL-5 = tested on: SK-MEL-5
SK-OV-3 = tested on: SK-OV-3
SN12C = tested on: SN12C
SNB-19 = tested on: SNB-19
SNB-75 = tested on: SNB-75
SR = tested on: SR
SW-620 = tested on: SW-620
T47D = tested on: T47D
TK-10 = tested on: TK-10
U-251 = tested on: U-251
UACC-257 = tested on: UACC-257
UACC-62 = tested on: UACC-62
UO-31 = tested on: UO-31
A498 = tested on: A498
MDA-MB-435 = tested on: MDA-MB-435
OVCAR-3 = tested on: OVCAR-3
HOP-92 = tested on: HOP-92

Measured: GI50

CC(=O)NC1c2ccccc2C(C)(C)C12CCC1(CC2)OCCO1 (stereo unspecified)
> 100 µM: HCT-15
inactive: 786-0 > 100 µM | A549 > 100 µM | ACHN > 100 µM | BT-549 > 100 µM | CAKI-1 > 100 µM | CCRF-CEM > 100 µM | COLO 205 > 100 µM | DU-145 > 100 µM | EKVX > 100 µM | HCC 2998 > 100 µM | HCT-116 > 100 µM | HL-60 > 100 µM | HOP-62 > 100 µM | HT-29 > 100 µM | Hs-578T > 100 µM | IGROV-1 > 100 µM | K562 > 100 µM | KM12 > 100 µM | LOX IMVI > 100 µM | M14 > 100 µM | MCF7 > 100 µM | MDA-MB-231 > 100 µM | MDA-N > 100 µM | MOLT-4 > 100 µM | Malme-3M 98.6 µM | NCI-H226 > 100 µM | NCI-H23 > 100 µM | NCI-H460 > 10 µM | NCI-H522 > 100 µM | NCI/ADR-RES > 100 µM | OVCAR-4 > 100 µM | OVCAR-5 > 100 µM | OVCAR-8 > 100 µM | PC-3 > 100 µM | RPMI-8226 > 100 µM | RXF 393 37.9 µM | SF-268 > 100 µM | SF-295 > 100 µM | SF-539 > 100 µM | SK-MEL-28 > 100 µM | SK-MEL-2 > 100 µM | SK-MEL-5 > 100 µM | SK-OV-3 > 10 µM | SN12C > 10 µM | SNB-19 > 100 µM | SNB-75 > 100 µM | SR > 100 µM | SW-620 > 100 µM | T47D > 100 µM | TK-10 > 100 µM | U-251 > 100 µM | UACC-257 > 100 µM | UACC-62 > 100 µM | UO-31 > 100 µM

O=C(c1ccc(Cl)cc1)N(C(=O)N1CCCCC1)c1ccccc1
79.4 µM: HCT-15
inactive: 786-0 > 100 µM | A498 > 100 µM | ACHN > 100 µM | BT-549 48.3 µM | CAKI-1 > 100 µM | CCRF-CEM 23.7 µM | COLO 205 85.9 µM | DU-145 > 100 µM | EKVX 33.7 µM | HCT-116 > 100 µM | HL-60 20.1 µM | HT-29 > 100 µM | Hs-578T 41.1 µM | IGROV-1 56.4 µM | K562 31 µM | KM12 > 100 µM | LOX IMVI 68.1 µM | M14 > 100 µM | MCF7 65.5 µM | MDA-MB-231 42.5 µM | MDA-MB-435 > 100 µM | MDA-N > 100 µM | MOLT-4 18.9 µM | Malme-3M 37.3 µM | NCI-H226 > 100 µM | NCI-H23 85.5 µM | NCI/ADR-RES 66.5 µM | OVCAR-3 > 100 µM | OVCAR-5 > 100 µM | OVCAR-8 > 100 µM | PC-3 17.7 µM | RPMI-8226 22.6 µM | SF-268 > 100 µM | SF-539 > 100 µM | SK-MEL-28 > 100 µM | SK-MEL-2 25.2 µM | SK-MEL-5 34.2 µM | SK-OV-3 33.9 µM | SN12C > 100 µM | SNB-19 > 100 µM | SW-620 > 100 µM | T47D 17.6 µM | U-251 > 100 µM | UACC-62 > 100 µM | UO-31 34.7 µM

O=C(/C=C/c1ccccc1)CCc1c(O)c2ccccc2oc1=O
inactive: 786-0 > 100 µM | A498 74.5 µM | A549 83.8 µM | ACHN > 100 µM | BT-549 32.4 µM | CAKI-1 > 100 µM | CCRF-CEM 45.4 µM | COLO 205 89.1 µM | DU-145 > 100 µM | EKVX 83 µM | HCC 2998 > 100 µM | HCT-116 35.7 µM | HL-60 > 10 µM | HOP-92 18 µM | HT-29 > 100 µM | Hs-578T > 100 µM | IGROV-1 > 100 µM | K562 49.4 µM | KM12 40.8 µM | LOX IMVI 52.5 µM | M14 > 100 µM | MCF7 60.4 µM | MDA-MB-231 44 µM | MDA-MB-435 67.9 µM | MDA-N 71.9 µM | MOLT-4 27.7 µM | Malme-3M > 100 µM | NCI-H226 > 100 µM | NCI-H23 65.5 µM | NCI-H460 87.9 µM | NCI-H522 74.3 µM | NCI/ADR-RES > 100 µM | OVCAR-3 49.4 µM | OVCAR-4 76.9 µM | OVCAR-5 > 100 µM | OVCAR-8 > 100 µM | PC-3 43.9 µM | RPMI-8226 32.3 µM | SF-268 > 100 µM | SF-295 > 100 µM | SF-539 > 100 µM | SK-MEL-28 > 100 µM | SK-MEL-2 71.9 µM | SK-MEL-5 80.5 µM | SK-OV-3 > 100 µM | SN12C > 100 µM | SNB-19 > 100 µM | SNB-75 > 100 µM | SW-620 53.8 µM | T47D > 100 µM | U-251 50.9 µM | UACC-257 > 100 µM | UACC-62 71 µM | UO-31 63.2 µM
76.7 µM: HCT-15
